The assay concerns the target hQC (Homo sapiens, UniProt Q16769). In words: Inhibitor assay for glutaminyl cyclase activity (fluorometric, H-Gln-βNA / H-Gln-AMC). The format is biochemical. The procedure, abridged:
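Ki values came from fitting progress curves to a competitive inhibition model; rapid screens used 4 mM inhibitor with substrate at KM. QC activity was read at 30 °C via auxiliary pyroglutamyl aminopeptidase releasing βNA (0.2 mM H-Gln-βNA, 0.2 M Tris pH 8.0, 20 mM EDTA) or AMC (0.05 M Tris pH 8.0, 5 mM EDTA).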

pIC50: −log10 of the molar value. Read-outs that look alike come from different tables or passages of the source.

Sequence of hQC (Q16769 29-361): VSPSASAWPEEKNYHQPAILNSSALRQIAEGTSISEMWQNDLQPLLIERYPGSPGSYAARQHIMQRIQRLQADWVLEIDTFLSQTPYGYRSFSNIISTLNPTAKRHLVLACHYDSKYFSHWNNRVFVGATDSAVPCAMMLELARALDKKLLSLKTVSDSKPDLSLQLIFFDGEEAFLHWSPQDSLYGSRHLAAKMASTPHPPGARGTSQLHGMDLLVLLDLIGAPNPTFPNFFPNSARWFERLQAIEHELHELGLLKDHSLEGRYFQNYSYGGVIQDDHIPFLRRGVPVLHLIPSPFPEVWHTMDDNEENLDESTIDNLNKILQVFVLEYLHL

For `CC(C)C1=C(O)C(=O)N(CCCn2ccnc2)C1c1ccc(CO)o1` (stereo not drawn) [Compound 63, 3-Hydroxy-5-(5-hydroxymethyl-furan-2-yl)-1-(3-imidazol-1-yl-propyl)-4-isopropyl-1,5-dihydro-pyrrol-2-one], the pIC50 (read-out: IC50) was 5.51.

For the compound `CCCC(=O)C1=C(O)C(=O)N(c2ccc3[nH]cnc3c2)C1` [Compound 362, 1-(1H-Benzoimidazol-5-yl)-4-butyryl-3-hydroxy-1,5-dihydro-pyrrol-2-one], the pIC50 (read-out: IC50) is 5.33.

With `CC(C)CC(=O)C1=C(O)C(=O)N(c2ccc3[nH]cnc3c2)C1c1ccc2cccc(O)c2n1` (stereo not drawn) [Compound 327, 1-(1H-Benzoimidazol-5-yl)-3-hydroxy-5-(8-hydroxy-quinolin-2-yl)-4-(3-methyl-butyryl)-1,5-dihydro-pyrrol-2-one], the pIC50 was 8.35 (compound from preparative synthesis, purified, read-out: IC50 hQC) and 8.40 (read-out: IC50).

As to `CC(C)C1=C(O)C(=O)N(CCCn2ccnc2)C1c1ccccc1F` (stereo not drawn) [Compound 74, 5-(2-Fluoro-phenyl)-3-hydroxy-1-(3-imidazol-1-yl-propyl)-4-isopropyl-1,5-dihydro-pyrrol-2-one], the pIC50 (read-out: IC50) is 5.66.

As for `CC1=C(O)C(=O)N(CCCn2ccnc2)C1c1ncc[nH]1` (stereo not drawn) [Compound 40, 3-Hydroxy-5-(1H-imidazol-2-yl)-1-(3-imidazol-1-yl-propyl)-4-methyl-1,5-dihydro-pyrrol-2-one], the negative-log IC50 (pIC50) (read-out: IC50) is 5.66.

For `O=C(O)CCC1C(C(=O)C2CCCCC2)=C(O)C(=O)N1c1ccc2[nH]cnc2c1` (stereo not drawn) [Compound 361, 3-[1-(1H-Benzoimidazol-5-yl)-3-cyclohexanecarbonyl-4-hydroxy-5-oxo-2,5-dihydro-1H-pyrrol-2-yl]-propionic acid], where the note is “read-out: IC50”, the pIC50 is 5.05.

In the case of `CC1=C(O)C(=O)N(c2ccc3[nH]cnc3c2)C1c1csc2ccccc12` (stereo not drawn) [Compound 347, 5-Benzo[b]thiophen-3-yl-1-(1H-benzoimidazol-5-yl)-3-hydroxy-4-methyl-1,5-dihydro-pyrrol-2-one], the pIC50 (read-out: IC50) was 5.51.

On to `O=C1C(O)=C(c2cccc(O)c2)C(C(O)CO)N1CCCn1ccnc1` (stereo not drawn) [Compound 9, 5-(1,2-Dihydroxy-ethyl)-3-hydroxy-4-(3-hydroxy-phenyl)-1-(3-imidazol-1-yl-propyl)-1,5-dihydro-pyrrol-2-one], for which the pIC50 (read-out: IC50) was 5.66.

Take `CCC1=C(O)C(=O)N(CCCn2ccnc2)C1c1ccncc1` (stereo not drawn) [Compound 244, 4-Ethyl-3-hydroxy-1-(3-imidazol-1-yl-propyl)-5-pyridin-4-yl-1,5-dihydro-pyrrol-2-one]: the negative-log IC50 (pIC50) (read-out: IC50) is 6.40.

On to `CCCC(=O)C1=C(O)C(=O)N(c2ccc3[nH]cnc3c2)C1c1ccc(O)c(Br)c1` (stereo not drawn) [Compound 344, 1-(1H-Benzoimidazol-5-yl)-5-(3-bromo-4-hydroxy-phenyl)-4-butyryl-3-hydroxy-1,5-dihydro-pyrrol-2-one], for which the pIC50 (read-out: IC50) was 6.40.

As to `CC1=C(O)C(=O)N(CCCn2ccnc2)C1c1ccc(CO)o1` (stereo not drawn) [Compound 32, 3-Hydroxy-5-(5-hydroxymethyl-furan-2-yl)-1-(3-imidazol-1-yl-propyl)-4-methyl-1,5-dihydro-pyrrol-2-one], the pIC50 (read-out: IC50) was 5.89.

For the compound `CC(C)C1=C(O)C(=O)N(CCCn2ccnc2)C1c1ccc2[nH]ccc2c1` (stereo not drawn) [Compound 58, 3-Hydroxy-1-(3-imidazol-1-yl-propyl)-5-(1H-indol-5-yl)-4-isopropyl-1,5-dihydro-pyrrol-2-one], the negative-log IC50 (pIC50) (read-out: IC50) is 5.51.

As for `CCCCCC1=C(O)C(=O)N(CCCn2ccnc2)C1c1ccc2[nH]ccc2c1` (stereo not drawn) [Compound 192, 3-Hydroxy-1-(3-imidazol-1-yl-propyl)-5-(1H-indol-5-yl)-4-pentyl-1,5-dihydro-pyrrol-2-one], where the note is “read-out: IC50”, the pIC50 is 7.40.

`O=C(C1=C(O)C(=O)N(c2ccc3[nH]cnc3c2)C1C1CCOC1)C1CC1` (stereo not drawn) [Compound 317, 1-(1H-Benzoimidazol-5-yl)-4-cyclopropanecarbonyl-3-hydroxy-5-(tetrahydro-furan-3-yl)-1,5-dihydro-pyrrol-2-one]: the negative-log IC50 (pIC50) (read-out: IC50) was 5.11.

For the compound `CC1=C(O)C(=O)N(CCCn2ccnc2)C1c1c[nH]c2cc(C)ccc12` (stereo not drawn) [Compound 37, 3-Hydroxy-1-(3-imidazol-1-yl-propyl)-4-methyl-5-(6-methyl-1H-indol-3-yl)-1,5-dihydro-pyrrol-2-one], the negative-log IC50 (pIC50) (read-out: IC50) is 6.40.

Take `CCC1=C(O)C(=O)N(CCCn2ccnc2)C1c1cccc(Cl)c1` (stereo not drawn) [Compound 249, 5-(3-Chloro-phenyl)-4-ethyl-3-hydroxy-1-(3-imidazol-1-yl-propyl)-1,5-dihydro-pyrrol-2-one]: the negative logarithm of the IC50 (pIC50) (read-out: IC50) is 7.40.

On to `CC1C(c2c[nH]c3ccccc23)=C(O)C(=O)N1CCCn1ccnc1` (stereo not drawn) [Compound 125, 3-Hydroxy-1-(3-imidazol-1-yl-propyl)-4-(1H-indol-3-yl)-5-methyl-1,5-dihydro-pyrrol-2-one], for which the pIC50 (read-out: IC50) is 6.40.

On to `CC1=C(O)C(=O)N(c2ccc3[nH]cnc3c2)C1c1cc(C)ccc1C` (stereo not drawn) [Compound 417, 1-(1H-Benzoimidazol-5-yl)-5-(2,5-dimethyl-phenyl)-3-hydroxy-4-methyl-1,5-dihydro-pyrrol-2-one], for which the negative-log IC50 (pIC50) (read-out: IC50) was 5.04.

With `Cc1[nH]c2ccccc2c1C1C(c2c[nH]c3ccccc23)=C(O)C(=O)N1c1ccc2[nH]cnc2c1` (stereo not drawn) [Compound 285, 1-(1H-Benzoimidazol-5-yl)-3-hydroxy-4-(1H-indol-3-yl)-5-(2-methyl-1H-indol-3-yl)-1,5-dihydro-pyrrol-2-one], the negative logarithm of the IC50 (pIC50) (read-out: IC50) was 5.24.

For `O=C1C(O)=C(c2ccc(O)cc2)C(c2cc(Cl)cc(Cl)c2O)N1CCCn1ccnc1` (stereo not drawn) [Compound 147, 5-(3,5-Dichloro-2-hydroxy-phenyl)-3-hydroxy-4-(4-hydroxy-phenyl)-1-(3-imidazol-1-yl-propyl)-1,5-dihydro-pyrrol-2-one], the pIC50 (read-out: IC50) was 7.40.

As for `CCCC(=O)C1=C(O)C(=O)N(c2ccc3[nH]cnc3c2)C1c1c[nH]cn1` (stereo not drawn) [Compound 359, 1-(1H-Benzoimidazol-5-yl)-4-butyryl-3-hydroxy-5-(1H-imidazol-4-yl)-1,5-dihydro-pyrrol-2-one], the negative-log IC50 (pIC50) (read-out: IC50) was 5.11.

On to `CCC1=C(O)C(=O)N(CCCn2ccnc2)C1c1ccccc1O` (stereo not drawn) [Compound 230, 4-Ethyl-3-hydroxy-5-(2-hydroxy-phenyl)-1-(3-imidazol-1-yl-propyl)-1,5-dihydro-pyrrol-2-one], for which the negative-log IC50 (pIC50) (read-out: IC50) is 7.40.

Turning to `COc1ccc(C2C(c3c[nH]c4ccccc34)=C(O)C(=O)N2CCCn2ccnc2)cc1` (stereo not drawn) [Compound 121, 3-Hydroxy-1-(3-imidazol-1-yl-propyl)-4-(1H-indol-3-yl)-5-(4-methoxy-phenyl)-1,5-dihydro-pyrrol-2-one], the pIC50 (read-out: IC50) is 7.40.

For the compound `O=C1C(O)=C(c2ccc(O)cc2)C(c2cccc(F)c2)N1c1ccc2[nH]cnc2c1` (stereo not drawn) [Compound 363, 1-(1H-Benzoimidazol-5-yl)-5-(3-fluoro-phenyl)-3-hydroxy-4-(4-hydroxy-phenyl)-1,5-dihydro-pyrrol-2-one], where the note is “read-out: IC50”, the pIC50 was 6.17.

In the case of `CC1=C(O)C(=O)N(c2ccc3[nH]cnc3c2)C1c1ccnc2ccccc12` (stereo not drawn) [Compound 270, 1-(1H-Benzoimidazol-5-yl)-3-hydroxy-4-methyl-5-quinolin-4-yl-1,5-dihydro-pyrrol-2-one], the pIC50 (read-out: IC50) is 5.83.

In the case of `O=C(O)CC1=C(O)C(=O)N(c2ccc3[nH]cnc3c2)C1c1cc(Br)ccc1F` (stereo not drawn) [Compound 338, [1-(1H-Benzoimidazol-5-yl)-2-(5-bromo-2-fluoro-phenyl)-4-hydroxy-5-oxo-2,5-dihydro-1H-pyrrol-3-yl]-acetic acid], the negative-log IC50 (pIC50) (read-out: IC50) was 5.66.

For the compound `CC1=C(O)C(=O)N(c2ccc3[nH]cnc3c2)C1c1ccc2nonc2c1` (stereo not drawn) [Compound 351, 1-(1H-Benzoimidazol-5-yl)-5-(benzo[c][1,2,5]oxadiazol-5-yl)-3-hydroxy-4-methyl-1,5-dihydro-pyrrol-2-one], the pIC50 (read-out: IC50) was 5.92.

With `O=C(C1=C(O)C(=O)N(c2ccc3[nH]cnc3c2)C1c1ccnc2ccccc12)C1CC1` (stereo not drawn) [Compound 296, 1-(1H-Benzoimidazol-5-yl)-4-cyclopropanecarbonyl-3-hydroxy-5-quinolin-4-yl-1,5-dihydro-pyrrol-2-one], the pIC50 (read-out: IC50) was 5.52.

As for `CC(C)C1=C(O)C(=O)N(CCCn2ccnc2)C1C1=CCCCC1` (stereo not drawn) [Compound 67, 5-Cyclohex-1-enyl-3-hydroxy-1-(3-imidazol-1-yl-propyl)-4-isopropyl-1,5-dihydro-pyrrol-2-one], the negative-log IC50 (pIC50) (read-out: IC50) was 5.66.

With `O=C1C(O)=C(c2ccc(O)cc2)C(c2ccccc2O)N1CCCn1ccnc1` (stereo not drawn) [Compound 157, 3-Hydroxy-5-(2-hydroxy-phenyl)-4-(4-hydroxy-phenyl)-1-(3-imidazol-1-yl-propyl)-1,5-dihydro-pyrrol-2-one], the pIC50 (read-out: IC50) was 7.40.

`O=C1C(O)=C(c2ccccc2)C(c2cc(Cl)cc(Cl)c2O)N1CCCn1ccnc1` (stereo not drawn) [Compound 76, 5-(3,5-Dichloro-2-hydroxy-phenyl)-3-hydroxy-1-(3-imidazol-1-yl-propyl)-4-phenyl-1,5-dihydro-pyrrol-2-one]: the pIC50 (read-out: IC50) was 7.40.

On to `CC(=O)C1=C(O)C(=O)N(c2ccc3[nH]cnc3c2)C1c1ccc(C(=O)O)o1` (stereo not drawn) [Compound 410, 5-[3-Acetyl-1-(1H-benzoimidazol-5-yl)-4-hydroxy-5-oxo-2,5-dihydro-1H-pyrrol-2-yl]-furan-2-carboxylic acid], for which, where the note is “read-out: IC50”, the pIC50 is 5.99.

`Cc1ccc2occ(C3C(C(=O)C(C)(C)C)=C(O)C(=O)N3c3ccc4[nH]cnc4c3)c(=O)c2c1` (stereo not drawn) [Compound 382, 1-(1H-Benzoimidazol-5-yl)-4-(2,2-dimethyl-propionyl)-3-hydroxy-5-(6-methyl-4-oxo-4H-chromen-3-yl)-1,5-dihydro-pyrrol-2-one]: for the setting “read-out: IC50”, the pIC50 is 5.40.

For `CCCCCC1=C(O)C(=O)N(CCCn2ccnc2)C1CO` (stereo not drawn) [Compound 211, 3-Hydroxy-5-hydroxymethyl-1-(3-imidazol-1-yl-propyl)-4-pentyl-1,5-dihydro-pyrrol-2-one], the pIC50 (read-out: IC50) is 6.40.

As for `O=C1C(O)=C(c2c[nH]c3ccccc23)C(c2ccc3[nH]ccc3c2)N1CCCn1ccnc1` (stereo not drawn) [Compound 120, 3-Hydroxy-1-(3-imidazol-1-yl-propyl)-5-(1H-indol-5-yl)-4-(1H-indol-3-yl)-1,5-dihydro-pyrrol-2-one], the negative-log IC50 (pIC50) (read-out: IC50) was 7.40.

Usually pIC50 stands for −log10 of the IC50, conventionally taken in molar units.

For the origin of these results see patent publication US8278345B2, “Inhibitors of glutaminyl cyclase” (Probiodrug AG, priority 2006, dated 2012).
